These results are taken from US20100137305A1, “AMINOPYRIMIDINES USEFUL AS KINASE INHIBITORS” (VERTEX PHARMACEUTICALS INCORPORATED, priority 2008, published 2010).

Where two headings read alike, the source gives them in different places.

Experiment [1] addresses T1, Aurora-2 (Aurora A) (Homo sapiens, UniProt O14965).
T1 sequence (O14965 1-403): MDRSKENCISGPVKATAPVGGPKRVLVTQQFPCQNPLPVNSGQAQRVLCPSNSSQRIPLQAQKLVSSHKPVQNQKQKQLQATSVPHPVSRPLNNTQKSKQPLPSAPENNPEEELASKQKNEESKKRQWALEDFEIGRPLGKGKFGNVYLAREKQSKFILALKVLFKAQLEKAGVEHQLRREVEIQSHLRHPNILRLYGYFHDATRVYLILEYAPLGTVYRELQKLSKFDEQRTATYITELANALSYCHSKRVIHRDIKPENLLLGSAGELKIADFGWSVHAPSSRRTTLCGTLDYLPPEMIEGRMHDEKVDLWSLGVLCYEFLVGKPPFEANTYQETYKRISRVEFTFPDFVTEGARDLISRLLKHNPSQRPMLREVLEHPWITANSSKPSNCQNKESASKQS
The experiment in a line: Aurora-2 (Aurora A) Inhibition Assay, coupled enzyme assay. Type of experiment: biochemical. The settings on record: 400 μM ATP, 30° C.; read-out: Aurora A kinase activity Ki. An outline of the steps:
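Coupled pyruvate kinase/LDH assay (NADH read-out) with 40 nM Aurora-2, 400 μM ATP and 570 μM Kemptide in 100 mM Hepes pH 7.5, 10 mM MgCl2, at 30 °C. Compound preincubated 10 min (serial dilutions typically from 7.5 μM final); initial rates over 10 min, IC50 and Ki by non-linear regression.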

The target of experiment [2] is Aurora-1 (Aurora B) (Homo sapiens, UniProt Q96GD4). The experiment is described as follows: Aurora-1 (Aurora B) Inhibition Assay (radiometric). Type of experiment: biochemical. Particulars: 800 μM ATP; read-out: Aurora B kinase activity Ki. The procedure, abridged: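 Enzyme at 22 nM in solution with 1.5 mM Kemptide (LRRASLG) in 25 mM HEPES pH 7.5, 10 mM MgCl2, 0.1% BSA, 10% glycerol, 1.7 mM DTT. Compound pre-equilibrated 10 min at 25° C, then [γ-33P]-ATP added at 800 μM final for 3 h. 33P peptide incorporation by phosphocellulose capture and scintillation counting. Ki from initial rates by non-linear regression.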

The target in experiment [3] is N-terminally truncated (Δ 27) Abl kinase (Homo sapiens, UniProt P00519). The experiment in a line: Abl Kinase Activity Inhibition Assay, coupled enzyme system. Type of experiment: biochemical. The settings on record: 110 μM ATP, 30° C. As to the method: Compounds were screened for their ability to inhibit N-terminally truncated (Δ 27) Abl kinase activity using a standard coupled enzyme system (Fox et al., Protein Sci., 7, pp. 2249 (1998)). Reactions were carried out in a solution containing 100 mM HEPES (pH 7.5), 10 mM MgCl2, 25 mM NaCl, 300 μM NADH, 1 mM DTT and 3% DMSO. Final substrate concentrations in the assay were 110 μM ATP (Sigma Chemicals, St Louis, Mo.) and 70 μM peptide (EAIYAAPFAKKK, American Peptide, Sunnyvale, Calif.). Reactions were carried out at 30° C. and 21 nM Abl kinase. Final concentrations of the components of the coupled enzyme system were 2.5 mM phosphoenolpyruvate, 200 μM NADH, 60 μg/ml pyruvate kinase and 20 μg/ml lactate dehydrogenase.
An assay stock buffer solution was prepared containing all of the reagents listed above with the exception of ATP and the test compound of interest. The assay stock buffer solution (60 μl) was incubated in a 96 well plate with 2 μl of the test compound of interest at final concentrations typically spanning 0.002 μM to 30 μM at 30° C. for 10 min. Typically, a 12 point titration was prepared by serial dilutions (from 1 mM compound stocks) with DMSO of the test compounds in daughter plates. The reaction was initiated by the addition of 5 μl of ATP (final concentration 110 μM). Rates of reaction were obtained using a Molecular Devices Spectramax plate reader (Sunnyvale, Calif.) over 10 min at 30° C. The Ki values were determined from the residual rate data as a function of inhibitor concentration using nonlinear regression (Prism 3.0, Graphpad Software, San Diego, Calif.).

Experiment [4] addresses T2, T315I mutant of human Abl (Homo sapiens, UniProt P00519, T315I).
T2 construct: purchased Upstate Cell Signaling Solutions (Dundee, UK)
The experiment is described as follows: Mutant Abl Kinase (T315I) Activity Inhibition Assay (Upstate, radiometric). Format: biochemical.

For experiment [5], the system named is Colo205 cells. The experiment in a line: Analysis of Cell Proliferation, 3H thymidine incorporation. The settings on record: Homo sapiens. Format: cell-based. The procedure, abridged: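 Serially diluted compound added in duplicate to Colo205 cells, 0.1% DMSO diluent control, incubated 72 or 96 hrs at 37C, 5% CO2. 0.5 μCi 3H thymidine added 3 h before end; incorporated radioactivity counted by beta-counter and dose-response curves fitted.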

[6] abbreviates: COLO 205, 96 h, 96 hours, read-out: IC50 cell proliferation after 96 hours.
Where [7] appears, read: COLO 205, 72 h, 72 hours, read-out: IC50 cell proliferation after 72 hours.

Sequence of Aurora-1 (Aurora B) (Q96GD4 whole entry): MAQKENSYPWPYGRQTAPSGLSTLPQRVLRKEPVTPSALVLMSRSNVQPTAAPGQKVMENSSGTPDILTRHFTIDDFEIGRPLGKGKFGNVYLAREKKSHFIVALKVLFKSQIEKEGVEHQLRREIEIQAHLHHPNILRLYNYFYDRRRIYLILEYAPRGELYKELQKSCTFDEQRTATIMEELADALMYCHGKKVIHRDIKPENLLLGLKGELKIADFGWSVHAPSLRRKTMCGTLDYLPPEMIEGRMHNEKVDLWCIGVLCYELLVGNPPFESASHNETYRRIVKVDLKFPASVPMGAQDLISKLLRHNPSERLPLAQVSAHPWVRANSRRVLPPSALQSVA

With `CCC(=O)Nc1ccc(Sc2nc(Nc3cc(C)n[nH]3)cc(N3CCC(NC(C)(C)C)CC3)n2)cc1` [Compound I-7], the inhibition constant (Ki) is at most 10 nM in experiment [1], 10 to 50 nM in experiment [2], 25 to 100 nM in experiment [3] and under 200 nM in experiment [4].

On to `CCC(=O)Nc1ccc(Sc2nc(Nc3cc(C)n[nH]3)cc(N3CCC(F)C3)n2)cc1` (stereo not shown) [Compound I-18], for which the Ki was at most 10 nM in experiment [1], 10 to 50 nM in experiment [2], under 25 nM in experiment [3] and 200 to 500 nM in experiment [4]. Besides, the IC50 in experiment [5] (setting [6]) lay in the range of 50 to 200 nM.

On to `Cc1cc(Nc2cc(N3CCC(F)(F)C3)nc(Sc3ccc(NC(=O)CC(F)(F)F)cc3)n2)[nH]n1` [Compound I-27], for which the inhibition constant Ki in experiment [1] is at most 10 nM; in experiment [2] it was 10 to 50 nM; in experiment [3] it was 25 to 100 nM; in experiment [4], under 200 nM. Further, the IC50 in experiment [5] (setting [7]) was 25 to 125 nM; in experiment [5] (setting [6]) it was 50 to 200 nM.

With `Cc1cnc(Nc2cc(N3CC[C@@H](N(C)C)C3)nc(Sc3ccc(NC(=O)C4CC4)cc3)n2)s1` [Compound I-29], the Ki in experiment [1] is at most 10 nM; in experiment [2], 10 to 50 nM; in experiment [3] it was under 25 nM; in experiment [4], under 200 nM. Further, in experiment [5] (setting [6]), the IC50 lay within 50 to 200 nM.

As to `CCC(=O)Nc1ccc(Sc2nc(Nc3cc(C)n[nH]3)cc(N3CCC(N4CCCC4)CC3)n2)cc1` [Compound I-41], the inhibition constant Ki is at most 10 nM in experiment [1], 25 to 100 nM in experiment [3] and under 200 nM in experiment [4]. The IC50 in experiment [5] (setting [7]) is 25 to 125 nM; in experiment [5] (setting [6]), at most 50 nM.

Take `CCC(=O)Nc1ccc(Sc2nc(Nc3cc(C)n[nH]3)cc(N3CCC(C(C)(C)O)CC3)n2)cc1` [Compound I-42]: the inhibition constant Ki is at most 10 nM in experiment [1], 10 to 50 nM in experiment [2], 25 to 100 nM in experiment [3] and 200 to 500 nM in experiment [4]. Also, the IC50 in experiment [5] (setting [6]) is at most 50 nM.

For `CCC(=O)Nc1ccc(Sc2nc(Nc3cc(C)n[nH]3)cc(N3CCC4(CCN(C)C4)CC3)n2)cc1` [Compound I-53], the figures for the Ki in experiment [1], in experiment [3] and in experiment [4] were at most 10 nM, under 25 nM and under 200 nM, respectively. In addition, the IC50 in experiment [5] (setting [7]) was 25 to 125 nM; in experiment [5] (setting [6]), at most 50 nM.

Regarding `CCC(=O)Nc1ccc(Sc2nc(Nc3cc(C)n[nH]3)cc(N3CCC(O)(C(C)(C)C)CC3)n2)cc1` [Compound I-61], the inhibition constant Ki in experiment [1] is at most 10 nM; in experiment [2], 10 to 50 nM; in experiment [4] it was 200 to 500 nM. The IC50 in experiment [5] (setting [6]) is at most 50 nM.

As for `Cc1cc(Nc2cc(N3CCC(N4CCC(F)C4)CC3)nc(Sc3ccc(NC(=O)CC(F)(F)F)cc3)n2)[nH]n1` (stereo not shown) [Compound I-63], the Ki in experiment [1] is at most 10 nM; in experiment [2], at most 10 nM; in experiment [3], 25 to 100 nM; in experiment [4], under 200 nM. The IC50 in experiment [5] (setting [7]) was at most 25 nM.

With `Cc1cc(Nc2cc(N3CCC(N4CCCC4)CC3)nc(Sc3ccc(NC(=O)C4(C(F)(F)F)CC4)cc3)n2)[nH]n1` [Compound I-65], the Ki was at most 10 nM in experiment [1], 10 to 50 nM in experiment [2], 25 to 100 nM in experiment [3] and under 200 nM in experiment [4]. In experiment [5] (setting [7]), the IC50 was at most 25 nM.

With `Cc1cc(Nc2cc(N3CCC(N4CCCC4)CC3)nc(Sc3ccc(NC(=O)CC(F)(F)F)cc3)n2)[nH]n1` [Compound I-68], the Ki in experiment [1] was at most 10 nM; in experiment [2], 10 to 50 nM; in experiment [3] it was under 25 nM; in experiment [4], under 200 nM. Also, the IC50 in experiment [5] (setting [7]) is at most 25 nM.

Take `Cc1cc(Nc2cc(N3CC4CCCN(C)C4C3)nc(Sc3ccc(NC(=O)CC(F)(F)F)cc3)n2)[nH]n1` (stereo not shown) [Compound I-69, 3,3,3-trifluoro-N-(4-(4-(3-methyl-1H-pyrazol-5-ylamino)-6-(1-methyltetrahydro-1H-pyrrolo[3,4-b]pyridin-6(2H,7H,7aH)-yl)pyrimidin-2-ylthio)phenyl)propanamide]: the Ki in experiment [1] is at most 10 nM; in experiment [2], at most 10 nM; in experiment [3] it was 25 to 100 nM; in experiment [4], under 200 nM. The IC50 in experiment [5] (setting [7]) was at most 25 nM.

With `Cc1cc(Nc2cc(N3CCC(F)C3)nc(Sc3ccc(NC(=O)CC(F)(F)F)cc3)n2)[nH]n1` (stereo not shown) [Compound I-71], the Ki was at most 10 nM in experiment [1], at most 10 nM in experiment [2], 25 to 100 nM in experiment [3] and under 200 nM in experiment [4]. For the same compound, the IC50 in experiment [5] (setting [7]) was at most 25 nM.

With `Cc1cc(Nc2cc(N3CCC(N4CCOCC4)CC3)nc(Sc3ccc(NC(=O)CC(F)(F)F)cc3)n2)[nH]n1` [Compound I-72], the Ki in experiment [1] was at most 10 nM; in experiment [2] it was at most 10 nM; in experiment [4] it was under 200 nM. Also, the IC50 in experiment [5] (setting [7]) is at most 25 nM.

As to `Cc1cc(Nc2cc(N3CCC(O)CC3)nc(Sc3ccc(NC(=O)CC(F)(F)F)cc3)n2)[nH]n1` [Compound I-80], the Ki in experiment [1] was at most 10 nM; in experiment [2], at most 10 nM; in experiment [3], 25 to 100 nM; in experiment [4] it was under 200 nM. Besides, the IC50 in experiment [5] (setting [7]) is 25 to 125 nM.

With `Cc1cc(Nc2cc(N3CCC(F)C3)nc(Sc3ccc(NC(=O)CCC(F)(F)F)cc3)n2)[nH]n1` (stereo not shown) [Compound I-81], the Ki in experiment [1] is at most 10 nM; in experiment [2] it was 10 to 50 nM; in experiment [3], 25 to 100 nM; in experiment [4] it was under 200 nM. For the same compound, the IC50 in experiment [5] (setting [7]) was 25 to 125 nM.

In the case of `Cc1cc(Nc2cc(N3CCC(N4CCC(F)(F)C4)CC3)nc(Sc3ccc(NC(=O)CC(F)(F)F)cc3)n2)[nH]n1` [Compound I-82], the Ki is at most 10 nM in experiment [1], 10 to 50 nM in experiment [2] and 200 to 500 nM in experiment [4]. In addition, the IC50 in experiment [5] (setting [7]) lay in the range of 25 to 125 nM.
